Molecular target: T1, hKvβ1.1 1-140 (Homo sapiens, UniProt Q14722)
T1 construct: gene KCNAB1; E. coli BL21(DE3) pRIL; NHS-dye labelled
T1 sequence (Q14722 1-140 isoform Q14722-2): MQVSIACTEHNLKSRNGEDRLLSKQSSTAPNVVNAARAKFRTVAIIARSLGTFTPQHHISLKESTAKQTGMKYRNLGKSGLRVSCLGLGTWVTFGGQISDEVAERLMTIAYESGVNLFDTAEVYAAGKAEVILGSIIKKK
Assay: microscale thermophoresis
Details: read-out: binding constant

- Kd: 98 ± 14 nM
SMILES: C=CC1=C(C)C2=Cc3c(C=C)c(C)c4[n]3[Fe]([Cl])[n]3c(c(C)c(CCC(=O)O)c3=CC3=NC(=C4)C(C)=C3CCC(=O)O)=CC1=N2 [hemin]

Source: article PMC7239824, “Impact of intracellular hemin on N-type inactivation of voltage-gated K^+ channels” (Pflugers Archiv, 2020)
